Reference: ChEMBL document CHEMBL1142042, “Nonpeptide alpha(v)beta3 antagonists: identification of potent, chain-shortened 7-oxo RGD mimetics” (Bioorg Med Chem Lett, 2005)

What was measured:
[1] = Clearance when dosed intravenously at 0.2 mpk to dogs; n = 2; type: ADME, organism-based, Canis lupus familiaris; conditions: dog, in vivo, iv, 0.2 mg/kg
Integrin alpha-V/beta-3 = Integrin alpha-V/beta-3 (Homo sapiens, UniProt P05106+P06756); assay: Inhibition of 2(S)-(4-125I-benzenesulphonylamino)-3-4-[2-(5,6,7,8-tetrahydro- [1,8]naphthyridin-2-yl)-ethyl]-benzoylamino-propionic acid binding to alphaV-beta3 integrin; type: protein-complex assay
[2] = Partition coefficient (logP); type: physicochemical; conditions: octanol/water
[3] = Plasma half life when dosed orally at 1 mpk and intravenously at 0.2 mpk to dogs; n = 2; type: ADME, organism-based, Canis lupus familiaris; conditions: dog
[4] = In vitro inhibition of mouse osteoblast-like 1.8 cells transformation into osteoclasts; type: functional
[5] = Oral bioavailability in dog (dose 1 mg/kg); type: ADME, organism-based, Canis lupus familiaris; conditions: in vivo

Chain of Integrin alpha-V/beta-3 (P05106 27-788 limits assumed): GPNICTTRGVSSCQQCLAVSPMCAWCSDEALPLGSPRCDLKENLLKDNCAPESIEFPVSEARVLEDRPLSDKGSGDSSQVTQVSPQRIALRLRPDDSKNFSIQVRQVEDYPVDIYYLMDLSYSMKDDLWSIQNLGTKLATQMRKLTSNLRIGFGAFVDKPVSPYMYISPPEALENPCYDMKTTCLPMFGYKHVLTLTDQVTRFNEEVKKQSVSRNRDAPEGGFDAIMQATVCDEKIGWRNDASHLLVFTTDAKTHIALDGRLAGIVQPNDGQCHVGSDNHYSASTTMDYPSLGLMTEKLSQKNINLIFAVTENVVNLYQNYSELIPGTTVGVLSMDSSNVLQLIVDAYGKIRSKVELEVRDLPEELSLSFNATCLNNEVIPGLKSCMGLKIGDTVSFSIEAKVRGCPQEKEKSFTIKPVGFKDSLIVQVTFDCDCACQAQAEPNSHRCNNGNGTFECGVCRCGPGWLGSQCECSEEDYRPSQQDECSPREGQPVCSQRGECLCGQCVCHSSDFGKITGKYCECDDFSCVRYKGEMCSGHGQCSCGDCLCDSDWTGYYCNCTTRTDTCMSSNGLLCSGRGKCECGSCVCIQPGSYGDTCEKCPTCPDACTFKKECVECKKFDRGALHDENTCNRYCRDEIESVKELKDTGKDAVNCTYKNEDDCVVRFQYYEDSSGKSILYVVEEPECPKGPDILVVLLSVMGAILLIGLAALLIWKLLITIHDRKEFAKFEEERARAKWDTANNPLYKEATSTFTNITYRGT
Chain of Integrin alpha-V/beta-3 (P06756 31-889 limits assumed): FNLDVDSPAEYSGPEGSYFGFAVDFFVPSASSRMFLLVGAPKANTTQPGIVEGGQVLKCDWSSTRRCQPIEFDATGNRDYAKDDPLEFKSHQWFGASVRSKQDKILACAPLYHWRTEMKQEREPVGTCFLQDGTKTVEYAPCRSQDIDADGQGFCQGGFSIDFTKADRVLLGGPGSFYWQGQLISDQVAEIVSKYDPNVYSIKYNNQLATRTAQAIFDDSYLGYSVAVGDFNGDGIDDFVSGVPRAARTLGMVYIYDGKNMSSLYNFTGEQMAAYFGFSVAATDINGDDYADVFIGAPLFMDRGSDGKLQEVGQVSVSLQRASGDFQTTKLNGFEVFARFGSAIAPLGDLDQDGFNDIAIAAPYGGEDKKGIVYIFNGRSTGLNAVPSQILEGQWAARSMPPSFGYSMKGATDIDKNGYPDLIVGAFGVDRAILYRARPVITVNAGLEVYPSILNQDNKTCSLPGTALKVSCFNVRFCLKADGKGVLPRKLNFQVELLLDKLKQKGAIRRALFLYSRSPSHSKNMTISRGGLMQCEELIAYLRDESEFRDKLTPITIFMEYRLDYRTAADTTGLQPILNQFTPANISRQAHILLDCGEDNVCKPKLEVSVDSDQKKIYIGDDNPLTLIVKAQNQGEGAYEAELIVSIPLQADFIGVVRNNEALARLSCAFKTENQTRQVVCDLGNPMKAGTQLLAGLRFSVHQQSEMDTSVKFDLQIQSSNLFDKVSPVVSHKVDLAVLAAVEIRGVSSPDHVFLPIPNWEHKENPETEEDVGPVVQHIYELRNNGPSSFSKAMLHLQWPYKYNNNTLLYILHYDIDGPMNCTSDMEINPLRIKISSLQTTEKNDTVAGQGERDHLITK
Chain of Integrin alpha-V/beta-3 (P06756 891-1048 limits assumed): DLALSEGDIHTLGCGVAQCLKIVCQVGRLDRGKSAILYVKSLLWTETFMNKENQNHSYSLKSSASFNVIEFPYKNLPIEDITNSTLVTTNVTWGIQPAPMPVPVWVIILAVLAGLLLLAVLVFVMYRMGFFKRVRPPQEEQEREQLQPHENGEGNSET

clearance [1] [mL/min/kg] | IC50 (Integrin alpha-V/beta-3) [nM] | logP [2] | half-life [3] [h] | IC50 [4] [nM] | bioavailability [5] [%] | Structure (SMILES)
2.5 | 0.24 | 0.1 | 6.1 | 8 | 60 | COc1ccc([C@@H](CCC[C@H](O)CCc2ccc3c(n2)NCCC3)CC(=O)O)cn1
4 | – | – | 9 | 39 | – | COc1ccc([C@@H](CCCCCCc2ccc3c(n2)NCCC3)CC(=O)O)cn1
6.7 | 0.16 | 0 | 7 | 12 | 75 | COc1ccc([C@@H](CCCC(=O)CCc2ccc3c(n2)NCCC3)CC(=O)O)cn1
– | 0.24 | 0 | – | 36 | – | COc1ccc([C@@H](CCC[C@@H](O)CCc2ccc3c(n2)NCCC3)CC(=O)O)cn1
